Source: patent publication US7071219B2, “Mono-acylated o-phenylendiamines derivatives” (Hoffmann-La Roche Inc., priority 2004, dated 2006)

System: histone deacetylase (HDAC)
Assay: cellular acetylation assay (histone acetylation ELISA in PC3 cells)
Format: cell-based, human
Details: compound 1 μM, 24 h incubation, ELISA with antibodies against acetylated histone H3 or H4
Protocol: In this assay, acetylation of histones is monitored in PC3 cells. High acetylation correlates with inhibition of histone deacetylase by compounds. Cell viability is monitored in parallel to estimate the cytotoxicity of compounds.
PC3 cells, a human prostate carcinoma cell line, are seeded as 1800 cells per well of a 384-well microtiterplate in RPMI 1640 (including 5% FCS, 2 mM glutamine and pen/strep).
After 48 h at 37° C. pre-diluted compounds are added to a final concentration of 1 uM. Compounds are pre-diluted in dimethyl sulfoxide (DMSO) resulting in a final concentration of DMSO of 0.5% per well.
After 24 h incubation cell viability is determined by adding cell proliferation reagent WST-1 (Roche Molecular Biochemicals). Another 60 min later the optical density (OD) is measured (450 nm versus 690 nm).
After measurement the cell layer is prepared for the ELISA reaction. Medium is aspirated and cells are fixed in ethanol at −20° C. for 60 min. After washing with PBS/Tween the blocking solution (PBS/5% FCS/Tween) is added and the cell layer is washed again. Antibodies against acetylated histone H3 or H4 (rabbit polyklonal IgG, Upstate Biotechnologie) are added at a dilution of 1:200 for 60 min at 37° C. As a second antibody goat anti rabbit IgG (H+L) humanIgG adsorbed-HRP conjugate (Dako) is used (1:2000 diluted). Cells are washed 3 times and the peroxidase substrate ABTS is allowed to react for 30–60 min at 37° C. The OD is measured at 405 nm.
The percentage of acetylation is calculated after substraction of blank O.D.s: […]

Row | SMILES | cell acetylation (PC3, 1 μM) [% of control]
1 | CCCCN(CCCC)CCCNC(=O)c1ccc(C(=O)Nc2ccccc2N)s1 [Example 1-4, Thiophene-2,5-dicarboxylic acid 2-[(2-amino-phenyl)-amide]5-[(3-dibutylamino-propyl)-amide]] | 195.7 % of control
2 | CC(C)N(CCNC(=O)c1ccc(C(=O)Nc2ccccc2N)cn1)C(C)C [Example 2-1, Pyridine-2,5-dicarboxylic acid 5-[(2-amino-phenyl)-amide]2-[(2-diisopropylamino-ethyl)-amide]] | 206.6 % of control
3 | CCCCCC(C)NC(=O)c1ccc(C(=O)Nc2ccccc2N)s1 (stereo not shown) [Example 1-6, Thiophene-2,5-dicarboxylic acid 2-[(2-amino-phenyl)-amide]5-[(1-methyl-hexyl)-amide]] | 122.9 % of control
4 | CC(C)N(CCNC(=O)c1ccc(C(=O)Nc2ccccc2N)nc1)C(C)C [Example 3-1, pyridine-2,5-dicarboxylic acid 2-[(2-amino-phenyl)-amide]5-[(2-diisopropylamino-ethyl)-amide]] | 244.8 % of control
5 | CCC(C)CNC(=O)c1ccc(C(=O)Nc2ccccc2N)s1 (stereo not shown) [Example 1-35, Thiophene-2,5-dicarboxylic acid 2-[(2-amino-phenyl)-amide]5-[(2-methyl-butyl)-amide]] | 135.4 % of control
6 | CN(C)CCNC(=O)c1ccc(C(=O)Nc2ccccc2N)nc1 [Example 3-5, pyridine-2,5-dicarboxylic acid 2-[(2-amino-phenyl)-amide]5-[(2-dimethylamino-ethyl)-amide]] | 154.6 % of control
7 | CN(C)CCNC(=O)c1ccc(C(=O)Nc2ccccc2N)s1 [Example 1-18, Thiophene-2,5-dicarboxylic acid 2-[(2-amino-phenyl)-amide]5-[(2-dimethylaminoethyl)-amide]] | 233.9 % of control
8 | CC(=O)Nc1ccc(C(=O)Nc2ccccc2N)cc1 [Reference Compound, 4-acetylamino-N-(2-aminophenyl)-benzamide, reference compound] | 152 % of control
9 | CCOC(=O)CC(C)NC(=O)c1ccc(C(=O)Nc2ccccc2N)nc1 (stereo not shown) [Example 3-9, 3-{[6-(2-amino-phenylcarbamoyl)-pyridine-3-carbonyl]-amino}-butyric acid ethyl ester] | 211.6 % of control
10 | CC(C)N(CCNC(=O)c1ccc(C(=O)Nc2ccccc2N)cc1)C(C)C [Example 4-1, N-(2-amino-phenyl)-N′-(2-diisopropylamino-ethyl)-terephthalamide] | 399.3 % of control
11 | CCC(C)NC(=O)c1ccc(C(=O)Nc2ccccc2N)s1 (stereo not shown) [Example 1-24, Thiophene-2,5-dicarboxylic acid 2-[(2-amino-phenyl)-amide]5-sec-butylamide] | 211.2 % of control
12 | CCCCN(C)C(=O)c1ccc(C(=O)Nc2ccccc2N)s1 [Example 1-19, thiophene-2,5-dicarboxylic acid 2-[(2-amino-phenyl)-amide]5-(butyl-methyl-amide)] | 118.8 % of control
13 | CCCC(C)NC(=O)c1ccc(C(=O)Nc2ccccc2N)s1 (stereo not shown) [Example 1-1, Thiophene-2,5-dicarboxylic acid 2-[(2-amino-phenyl)-amide]5-[(1-methyl-butyl)-amide]] | 137.2 % of control
14 | NC(=O)c1ccc(C(=O)Nc2ccccc2N)s1 [Example 1-44, thiophene-2,5-dicarboxylic acid 2-amide 5-[(2-amino-phenyl)-amide]] | 185.6 % of control
15 | CCCCN(CCCC)CCCNC(=O)c1ccc(C(=O)Nc2ccccc2N)nc1 [Example 3-20, pyridine-2,5-dicarboxylic acid 2-[(2-amino-phenyl)-amide]5-[(3-dibutylamino-propyl)-amide]] | 223.8 % of control
16 | CN(C)CC(C)(C)CNC(=O)c1ccc(C(=O)Nc2ccccc2N)s1 [Example 1-17, Thiophene-2,5-dicarboxylic acid 2-[(2-amino-phenyl)-amide]5-[(3-dimethylamino-2,2-dimethylpropyl)-amide]] | 149.8 % of control
